Measurements from patent US7772245B2, “Inhibitors of histone deacetylase” (Miikana Therapeutics, Inc., priority 2005, dated 2010).

Key:
HDAC = test: In vitro fluorescent histone deacetylase assay (Biomol HDAC fluorescent activity kit, HeLa cell nuclear extract); format: biochemical; details: 100 μM compound; HeLa cell nuclear extract as source of HDAC activity; 50 μM substrate, 10 min at room temperature
Experimental: Histone deacetylase (HDAC) activity assays were performed using the HDAC fluorescent activity assay/drug discovery kit (Biomol Research Laboratories, Plymouth Meeting, Pa.) essentially according to the manufacturer's instructions. The included HeLa cell nuclear extract, which contains a mosaic of HDAC enzymes and other nuclear factors, was used as the source of HDAC activity. The final substrate concentration in the assay mixture was 50 μM. The reaction was allowed to proceed for 10 min at room temperature before stopping the reaction. Test compounds were prepared as 20 mM stock solutions in DMSO (Molecular Biology grade, Sigma-Aldrich Co., St. Louis, Mo.) and stored at −70° C. Serial dilutions of test compounds were prepared in assay buffer immediately prior to testing. DMSO was determined in a separate trial to have no significant effect on the activity of this assay at concentrations up to 5%; the final DMSO concentration in the wells was no more than 2% and therefore DMSO effects were safely neglected. Assays were performed in white polystyrene 96-well half-area assay plates (Corning, Corning, N.Y.) and measured on a Wallace 1420 fluorescent plate reader (Wallac Oy, Turku, Finland) with an excitation wavelength of 355 nm, an emission wavelength of 460 nm, and a 1 sec signal averaging time.

HCT116 cells = test: Whole cell cytotoxicity assay: Sulforhodamine B; format: cell-based; details: Homo sapiens, HCT-116; 100 μM compound; 48 hours incubation with drug; Sulforhodamine B staining; read-out: % Inhibition of HCT116 cell growth @ 100 μM
Experimental: [The source words this procedure for another cell line and reports this cell line under the same test.] The following procedure can be found on the Developmental Therapeutics Program NCl/NIH web site at http://dtp.nci.nih.gov/brancehes/btb/ivclsp.html. • 1. Human tumor cell lines of HT29, A549 and MCF7 are grown in DMEM containing 10% fetal bovine serum and 2 mM L-glutamine. Cells are plated in a 96 well plate at a density of 5000 cells per well in 100 μL of growth medium and incubated at 37° C., 5% CO2, for 24 hours prior to the addition of experimental compounds. • 2. Experimental drugs are solubilized in DMSO for a final concentration of 20 mM immediately prior to use. Drugs are further diluted in growth media for a total of nine drug concentrations and a growth control. At the 24 hour time point, one plate of cells is fixed in situ with TCA as a measurement of the cell population at time zero, or the time of drug addition. • 3. The plates are further incubated with drug for an additional 48 hours. • 4. The cells are fixed in situ by gently aspirating off the culture media and then adding 50 μL of ice cold 10% TCA per well and incubated at 4° C. for 60 minutes. The plates are washed with tap water five times and allowed to air dry for 5 minute. • 5. 50 μL of a 0.4% (w/v) Sulforhodamine B solution in 1% (v/v) acetic acid is added per well and incubated for 30 minutes at room temperature. • 6. Following staining, plates are washed five times with 1% acetic acid to remove any unbound dye and then allowed to air dry for 5 minutes. • 7. Stain is solubilized with 100 μL of 10 mM Tris pH 10.5 per well and placed on an orbital rotator for 5 minutes. • 8. Absorbance is read at 570 nm.

| SMILES | % Inhibition of HDAC @ 100 μM (HDAC) [%] | inhibition at 100 µM (HCT116 cells) [%] |
| --- | --- | --- |
| O=C(NO)c1cnc(N2CCc3[nH]c4ccc(C(F)(F)F)cc4c3C2)nc1 [Example 55, N-hydroxy-2-(8-trifluoromethyl-1,3,4,5-tetrahydro-2H-pyrido[4,3-b]indol-2-yl)pyrimidine-5-carboxamide] | 99.3 | 99.1 |
| CN(C)c1ccc(-c2ccc3[nH]c4c(c3c2)CN(c2ncc(C(=O)NO)cn2)CC4)cc1 [Example 48, N-hydroxy-2-{8-[4-dimethylaminophenyl]-1,3,4,5-tetrahydro-2H-pyrido[4,3-b]indol-2-yl}pyrimidine-5-carboxamide] | 99.7 | 97.8 |
| O=C(NO)c1cnc(N2CCc3[nH]c4ccc(-c5ccoc5)cc4c3C2)nc1 [Example 52, N-hydroxy-2-{8-[fur-3-yl]-1,3,4,5-tetrahydro-2H-pyrido[4,3-b]indol-2-yl}pyrimidine-5-carboxamide] | 99.7 | 98.9 |
| CC(=O)Nc1ccc(-c2ccc3[nH]c4c(c3c2)CN(c2ncc(C(=O)NO)cn2)CC4)cc1 [Example 50, N-hydroxy-2-{8-[4-(N-acetamido)phenyl]-1,3,4,5-tetrahydro-2H-pyrido[4,3-b]indol-2-yl}pyrimidine-5-carboxamide] | 99.7 | 89.1 |
| Cc1ccc(-c2ccc3[nH]c4c(c3c2)CN(c2ncc(C(=O)NO)cn2)CC4)cc1 [Example 41, N-hydroxy-2-{8-[4-methylphenyl]-1,3,4,5-tetrahydro-2H-pyrido[4,3-b]indol-2-yl}pyrimidine-5-carboxamide] | 99.6 | 98.7 |
| Cc1cc2[nH]c3c(c2cc1C)CN(c1ncc(C(=O)NO)cn1)CC3 [Example 56, N-hydroxy-2-(7,8-dimethyl-1,3,4,5-tetrahydro-2H-pyrido[4,3-b]indol-2-yl)pyrimidine-5-carboxamide] | 99.8 | 99 |
| COc1ccc2[nH]c3c(c2c1)CN(c1ncc(C(=O)NO)cn1)CC3 [Example 57, N-hydroxy-2-(8-methoxy-1,3,4,5-tetrahydro-2H-pyrido[4,3-b]indol-2-yl)pyrimidine-5-carboxamide] | 99.9 | 98.2 |
| CSc1cccc(-c2ccc3[nH]c4c(c3c2)CN(c2ncc(C(=O)NO)cn2)CC4)c1 [Example 49, N-hydroxy-2-{8-[3-(methylthio)phenyl]-1,3,4,5-tetrahydro-2H-pyrido[4,3-b]indol-2-yl}pyrimidine-5-carboxamide] | 99.9 | 99.3 |
| O=C(/C=C/c1cnc(N2CCc3c([nH]c4ccccc34)C2)nc1)NO [Example 20, (2E)-N-hydroxy-3-[2-(1,3,4,9-tetrahydro-2H-b-carbolin-2-yl)pyrimidin-5-yl]acrylamide] | 99.6 | 98.2 |
| O=C(NO)c1cnc(N2CCc3[nH]c4ccc(-c5cccc(CN6CCCC6)c5)cc4c3C2)nc1 [Example 97, N-hydroxy-2-{8-[3-(pyrrolidin-1-ylmethyl)phenyl]-1,3,4,5-tetrahydro-2H-pyrido[4,3-b]indol-2-yl}pyrimidine-5-carboxamide] | 100 | 98.1 |
| COc1ccc2c(c1)CN(c1ncc(C(=O)NO)cn1)CC2 [Example 31, 2-(7-methoxy-3,4,dihydroisoquinolin-2(1H)-yl)-N-hydroxypyrimidine-5-carboxamide] | 100 | 99.5 |
| O=C(NO)c1cnc(N2CCc3[nH]c4ccc(-c5cccc(-c6nnn[nH]6)c5)cc4c3C2)nc1 [Example 84, N-hydroxy-2-{8-[3-(1H-tetrazol-5-yl)phenyl]-1,3,4,5-tetrahydro-2H-pyrido[4,3-b]indol-2-yl}pyrimidine-5-carboxamide] | 99.9 | 93.2 |
| CN1CCN(Cc2ccc3[nH]c4c(c3c2)CN(c2ncc(C(=O)NO)cn2)CC4)CC1 [Example 123, N-hydroxy-2-{8-[(4-methylpiperazin-1-yl)methyl]-1,3,4,5-tetrahydro-2H-pyrido[4,3-b]indol-2-yl}pyrimidine-5-carboxamide] | 100 | 97 |
| O=C(NO)c1cnc(N2CCc3[nH]c4ccc(OC(F)(F)F)cc4c3C2)nc1 [Example 16, N-hydroxy-2-[8-(trifluoromethoxy)-1,3,4,5-tetrahydro-2H-pyrido[4,3-b]indol-2-yl]pyrimidine-5-carboxamide] | 98.9 | 99 |
| O=C(NO)c1cnc(N2CCc3[nH]c4cc(Br)ccc4c3C2)nc1 [Example 112, N-hydroxy-2-(7-bromo-1,3,4,5-tetrahydro-2H-pyrido[4,3-b]indol-2-yl)pyrimidine-5-carboxamide] | 99.9 | 98.7 |
| O=C(NO)c1cnc(N2CCc3[nH]c4ccc(-c5cccc(CN6CCOCC6)c5)cc4c3CC2)nc1 [Example 116, N-hydroxy-2-(9-[3-(morpholin-4-ylmethy)phenyl]-1,4,5,6-tetrahydroazepino[4,5-b]indol-3(2H)-1-yl)pyrimidine-5-carboxamide] | 100 | 98.6 |
| Cc1ccc2c3c([nH]c2c1)CN(c1ncc(C(=O)NO)cn1)CC3 [Example 65, N-hydroxy-2-(7-methyl-1,3,4,9-tetrahydro-2H-b-carbolin-2-yl)pyrimidine-5-carboxamide] | 99.8 | 98.4 |
| Nc1cccc(-c2ccc3[nH]c4c(c3c2)CN(c2ncc(C(=O)NO)cn2)CC4)c1 [Example 86, N-hydroxy-2-{8-[3-aminophenyl]-1,3,4,5-tetrahydro-2H-pyrido[4,3-b]indol-2-yl}pyrimidine-5-carboxamide] | 100 | 99.1 |
| O=C(NO)c1cnc(N2CCc3c(sc4ccccc34)C2)nc1 [Example 118, 2-(3,4-dihydro[1]benzothieno[2,3-c]pyridin-2(1H)-yl)-N-hydroxypyrimidine-5-carboxamide] | 99.7 | 98.9 |
| O=C(NO)c1cnc(N2CCc3[nH]c4ccc(-c5cncnc5)cc4c3C2)nc1 [Example 51, N-hydroxy-2-{8-(pyrimidin-5-yl)-1,3,4,5-tetrahydro-2H-pyrido[4,3-b]indol-2-yl}pyrimidine-5-carboxamide] | 99.8 | 98.7 |
| O=C(NO)c1cnc(N2CCc3[nH]c4ccc(-c5cccs5)cc4c3C2)nc1 [Example 60, N-hydroxy-2-{8-[thien-2-yl]-1,3,4,5-tetrahydro-2H-pyrido[4,3-b]indol-2-yl}pyrimidine-5-carboxamide] | 100 | 99 |
| O=C(NO)c1cnc(N2CCc3c([nH]c4ccccc34)C2)s1 [Example 19, N-hydroxy-2-(1,3,4,9-tetrahydro-2H-b-carbolin-2-yl)-1,3-thiazole-5-carboxamide] | 97.6 | 97.2 |
| COc1ccc2[nH]c3c(c2c1)CCN(c1ncc(C(=O)NO)cn1)CC3 [Example 113, N-hydroxy-2-(9-methoxy-1,4,5,6-tetrahydroazepino[4,5-b]indol-3(2H)-1-yl)pyrimidine-5-carboxamide] | 100 | 98.7 |
| Cc1ccc2c3c([nH]c2c1)CCN(c1ncc(C(=O)NO)cn1)C3 [Example 36, N-hydroxy-2-(7-methyl-1,3,4,5-tetrahydro-2H-pyrido[4,3-b]indol-2-yl)pyrimidine-5-carboxamide] | 99.8 | 98.3 |
| O=C(NO)c1cnc(N2CCc3[nH]c4ccc(-c5ccc(CN6CCOCC6)o5)cc4c3C2)nc1 [Example 109, N-hydroxy-2-{8-[5-(morpholin-4-yl)methyl-2-furyl]-1,3,4,5-tetrahydro-2H-pyrido[4,3-b]indol-2-yl}pyrimidine-5-carboxamide] | 100 | 91.7 |
